In patent publication US20210386695A1 (priority 2020, published 2021):

How the values were obtained:
[1] = biological target: SARS-CoV-2 M^pro (Severe acute respiratory syndrome coronavirus 2, UniProt P0DTD1); test: FRET based assay of SARS-CoV-2 Mpro protease activity; type: biochemical
[2] = biological target: SARS-CoV-2 PL^pro (Severe acute respiratory syndrome coronavirus 2, UniProt P0DTD1); test: SARS-CoV-2 PLpro protease activity, peptide substrate Z-RLRGG-AMC; type: biochemical
[3] = system: wild type SARS-CoV-2 pseudo-particles; test: microbe, parasite or virus in culture; type: cell-based; conditions: Severe acute respiratory syndrome coronavirus 2, Vero C1008
[4] = system: wild type SARS-CoV-2 pseudo-particles; type: cell-based
[5] = system: wild type SARS-CoV-2 pseudo-particles; type: cell-based; remark: listed apart in the source
[6] = in vitro; conditions: African green monkey
[7] = read-out: inhibitory effect on the protease activity of SARS-CoV-2 PL^pro

Compound `CCN(CC)C(=S)SSC(=S)N(CC)CC` [disulfiram] has an inhibition at 1 µM [1] of 16%, an inhibition at 5 µM [1] of 80.9% and an inhibition at 10 µM [1] of 87.1%. The “inhibition of protease activity of SARS-CoV-2 M^pro” value ([1]; 30 μM disulfiram) was “full inhibition”, the “inhibition of protease activity of SARS-CoV-2 M^pro” value ([1]; 60 μM disulfiram) was “full inhibition” and the “inhibitory effect on the protease activity of SARS-CoV-2 PL^pro” value ([2]; 1 μM disulfiram) was “does not inhibit”. It also gave an inhibition at 5 µM [2, 7] of 21.7%, an inhibition at 10 µM [2, 7] of 36.3% and an inhibition at 30 µM [2, 7] of 77.9%. For the same compound, the inhibition at 60 µM [2, 7] was 99.9%, the EC50 [3] was 3.1 µM and the “block of viral pseudo-particles infection” value [4] was “dose-dependent manner”. The “inhibitory capacity in furin-expressing Vero E6 cells compared with Vero E6 cells” value [5] was “similar” and the CC50 [6] was 15.7 µM.
